Data reported in US11028079B2 (ConverGene LLC, priority 2015, dated 2021).

What follows are molecules tested against T1, BRD4 bromodomains (Homo sapiens, UniProt O60885) (assay: BROMOscan bromodomain competition binding assay (DiscoveRx)). Details: Kd from 11 compound concentrations ranging from 0 to 10 μM, read-out: BROMOscan Relative Activity.
T1 construct: fused on or other part: T7 phage capsid protein (phage-display fusion; the phage DNA is read out by qPCR)
Procedure: Bromodomain assays were conducted to measure interactions between certain compounds and bromodomains.
The assays were conducted according to BROMOscan protocol from Discover Rx. Briefly, BRD4 bromodomains expressed as a fusion capsid protein of T7 phage were bound to acetylated peptide ligand on a solid phase and competition bindings were performed. T7 phage strains displaying bromodomains were grown in parallel in 24-well blocks in an E. coli host derived from the BL21 strain. E. coli were grown to log-phase and infected with T7 phage from a frozen stock (multiplicity of infection=0.4) and incubated with shaking at 32° C. until lysis (90-150 minutes). The lysates were centrifuged (5,000×g) and filtered (0.2 μm) to remove cell debris. […] The liganded beads were blocked with excess biotin and washed with blocking buffer (SeaBlock (Pierce), 1% BSA, 0.05% Tween 20, 1 mM DTT) to remove unbound ligand and to reduce non-specific phage binding. […] Test compounds were prepared as 1000× stocks in 100% DMSO and subsequently diluted 1:10 in monoethylene glycol (MEG) to create stocks at 100× the screening concentration (resulting stock solution is 10% DMSO/90% MEG). The compounds were then diluted directly into the assays such that the final concentration of DMSO and MEG were 0.1% and 0.9%, respectively. All reactions were performed in polystyrene 96-well plates in a final volume of 0.135 ml. […] The bromodomain concentration in the eluates was measured by qPCR. Data was collected at 11 compound concentrations ranging from 0 to 10 μM. Kd values were then derived from a standard dose-response curve generated with Hill equation (Hill Slope was set to ˜1) and a non-linear least square fit with the Levenberg-Marquardt algorithm. Response=Background+Signal−Background/1+(Kd Hill Slope/Dose Hill Slope)

Structure (SMILES) | Kd [µM]
Cc1noc(C)c1-c1ccc2nc(Cl)nc(NCc3cccc(Cl)c3)c2c1 [Example 1, 2-chloro-N-(3-chlorobenzyl)-6-(3,5-dimethylisoxazol-4-yl)quinazolin-4-amine] | 0.5 to 5
Cc1cc(NCc2cccc(Cl)c2)c2cc(-c3c(C)noc3C)ccc2n1 [Example 4, N-(3-chlorobenzyl)-6-(3,5-dimethylisoxazol-4-yl)-2-methylquinolin-4-amine] | 0.5 to 5
Cc1noc(C)c1-c1ccc2nc(NC3CCN(C)CC3)nc(NCc3cccc(Cl)c3)c2c1 [Example 7, N4-(3-chlorobenzyl)-6-(3,5-dimethylisoxazol-4-yl)-N2-(1-methylpiperidin-4-yl)quinazoline-2,4-diamine] | < 0.5
COc1nc(NCc2cccc(Cl)c2)c2cc(-c3c(C)noc3C)ccc2n1 [Example 8, N-(3-chlorobenzyl)-6-(3,5-dimethylisoxazol-4-yl)-2-methoxyquinazolin-4-amine] | < 0.5
Cc1nc(NCc2cccc(Cl)c2)c2cc(-c3c(C)noc3C)ccc2n1 [Example 9, N-(3-chlorobenzyl)-6-(3,5-dimethylisoxazol-4-yl)-2-methylquinazolin-4-amine] | < 0.5
Cc1noc(C)c1-c1ccc2nc(NCCN3CCOCC3)nc(NCc3cccc(Cl)c3)c2c1 [Example 10, N4-(3-chlorobenzyl)-6-(3,5-dimethylisoxazol-4-yl)-N2-(2-morpholinoethyl)quinazoline-2,4-diamine] | < 0.5
Cc1noc(C)c1-c1ccc2nc(NCCCO)nc(NCc3cccc(Cl)c3)c2c1 [Example 13, 3-((4-((3-chlorobenzyl)amino)-6-(3,5-dimethylisoxazol-4-yl)quinazolin-2-yl)amino)propan-1-ol] | < 0.5
Cc1noc(C)c1-c1cc(NCc2cccc(Cl)c2)c2cc(Br)ccc2n1 [Example 15, 6-bromo-N-(3-chlorobenzyl)-2-(3,5-dimethylisoxazol-4-yl)quinolin-4-amine] | > 5
Cc1noc(C)c1-c1ccc2nc(N3CCN(C(=O)C4CC4)CC3)nc(NCc3cccc(Cl)c3)c2c1 [Example 17, (4-(4-((3-chlorobenzyl)amino)-6-(3,5-dimethylisoxazol-4-yl)quinazolin-2-yl)piperazin-1-yl)(cyclopropyl)methanone] | < 0.5
Cc1noc(C)c1-c1ccc2nc(N3CCN(CCO)CC3)nc(NCc3cccc(Cl)c3)c2c1 [Example 20, 2-(4-(4-((3-chlorobenzyl)amino)-6-(3,5-dimethylisoxazol-4-yl)quinazolin-2-yl)piperazin-1-yl)ethanol] | < 0.5
Cc1noc(C)c1-c1ccc2nc(N3CCN(CCC(C)C)CC3)nc(NCc3cccc(Cl)c3)c2c1 [Example 21, N-(3-chlorobenzyl)-6-(3,5-dimethylisoxazol-4-yl)-2-(4-isopentylpiperazin-1-yl)quinazolin-4-amine] | 0.5 to 5
Cc1noc(C)c1-c1ccc2nc(N(C)CCN(C)C)nc(NCc3cccc(Cl)c3)c2c1 [Example 22, N4-(3-chlorobenzyl)-N2-(2-(dimethylamino)ethyl)-6-(3,5-dimethylisoxazol-4-yl)-N2-methylquinazoline-2,4-diamine] | < 0.5
Cc1noc(C)c1-c1ccc2nc(N3CCCCC3CO)nc(NCc3cccc(Cl)c3)c2c1 (stereo not drawn) [Example 25, (1-(4-((3-chlorobenzyl)amino)-6-(3,5-dimethylisoxazol-4-yl)quinazolin-2-yl)piperidin-2-yl)methanol] | 0.5 to 5
Cc1noc(C)c1-c1ccc2nc(-c3cnn(CCN4CCOCC4)c3)nc(NCc3cccc(Cl)c3)c2c1 [Example 28, N-(3-chlorobenzyl)-6-(3,5-dimethylisoxazol-4-yl)-2-(1-(2-morpholinoethyl)-1H-pyrazol-4-yl)quinazolin-4-amine] | < 0.5
Cc1noc(C)c1-c1ccc2nc(C3=CCNCC3)nc(NCc3cccc(Cl)c3)c2c1 [Example 31, N-(3-chlorobenzyl)-6-(3,5-dimethylisoxazol-4-yl)-2-(1,2,3,6-tetrahydropyridin-4-yl)quinazolin-4-amine] | < 0.5
Cc1noc(C)c1-c1ccc2nc(N3CCCN(CCO)CC3)nc(NCc3cccc(Cl)c3)c2c1 [Example 33, 2-(4-(4-((3-chlorobenzyl)amino)-6-(3,5-dimethylisoxazol-4-yl)quinazolin-2-yl)-1,4-diazepan-1-yl)ethanol] | < 0.5

The remaining lines, values ahead:

Kd [µM] | Structure (SMILES)
< 0.5 | Cc1noc(C)c1-c1ccc2ncnc(NCc3cccc(Cl)c3)c2c1 [Example 2, N-(3-chlorobenzyl)-6-(3,5-dimethylisoxazol-4-yl)quinazolin-4-amine]
0.5 to 5 | Cc1noc(C)c1-c1ccc2nccc(NCc3cccc(Cl)c3)c2c1 [Example 3, N-(3-chlorobenzyl)-6-(3,5-dimethylisoxazol-4-yl)quinolin-4-amine]
0.5 to 5 | CNc1nc(NCc2cccc(Cl)c2)c2cc(-c3c(C)noc3C)ccc2n1 [Example 5, N4-(3-chlorobenzyl)-6-(3,5-dimethylisoxazol-4-yl)-N2-methylquinazoline-2,4-diamine]
< 0.5 | Cc1noc(C)c1-c1ccc2nc(N3CCN(C)CC3)nc(NCc3cccc(Cl)c3)c2c1 [Example 6, N-(3-chlorobenzyl)-6-(3,5-dimethylisoxazol-4-yl)-2-(4-methylpiperazin-1-yl)quinazolin-4-amine]
< 0.5 | Cc1noc(C)c1-c1ccc2nc(NCCN3CCN(C)CC3)nc(NCc3cccc(Cl)c3)c2c1 [Example 11, N4-(3-chlorobenzyl)-6-(3,5-dimethylisoxazol-4-yl)-N2-(2-(4-methylpiperazin-1-yl)ethyl)quinazoline-2,4-diamine]
< 0.5 | Cc1noc(C)c1-c1ccc2nc(N3CCN(CCN(C)C)CC3)nc(NCc3cccc(Cl)c3)c2c1 [Example 12, N-(3-chlorobenzyl)-2-(4-(2-(dimethylamino)ethyl)piperazin-1-yl)-6-(3,5-dimethylisoxazol-4-yl)quinazolin-4-amine]
0.5 to 5 | Cc1noc(C)c1-c1ccc2nc(-c3c(C)noc3C)cc(NCc3cccc(Cl)c3)c2c1 [Example 14, N-(3-chlorobenzyl)-2,6-bis(3,5-dimethylisoxazol-4-yl)quinolin-4-amine]
< 0.5 | Cc1noc(C)c1-c1ccc2nc(N3CCN(CCCN(C)C)CC3)nc(NCc3cccc(Cl)c3)c2c1 [Example 16, N-(3-chlorobenzyl)-2-(4-(3-(dimethylamino)propyl)piperazin-1-yl)-6-(3,5-dimethylisoxazol-4-yl)quinazolin-4-amine]
< 0.5 | Cc1noc(C)c1-c1ccc2nc(N3CCN(C(=O)c4cnn(C)c4)CC3)nc(NCc3cccc(Cl)c3)c2c1 [Example 18, (4-(4-((3-chlorobenzyl)amino)-6-(3,5-dimethylisoxazol-4-yl)quinazolin-2-yl)piperazin-1-yl)(1-methyl-1H-pyrazol-4-yl)methanone]
> 5 | CN(C)CCN1CCN(c2nc(NCc3cccc(Cl)c3)c3cc(Br)ccc3n2)CC1 [Example 19, 6-bromo-N-(3-chlorobenzyl)-2-(4-(2-(dimethylamino)ethyl)piperazin-1-yl)quinazolin-4-amine]
0.5 to 5 | Cc1noc(C)c1-c1ccc2nc(N3CCC(CO)CC3)nc(NCc3cccc(Cl)c3)c2c1 [Example 23, (1-(4-((3-chlorobenzyl)amino)-6-(3,5-dimethylisoxazol-4-yl)quinazolin-2-yl)piperidin-4-yl)methanol]
0.5 to 5 | Cc1noc(C)c1-c1ccc2nc(N3CCCC(CO)C3)nc(NCc3cccc(Cl)c3)c2c1 (stereo not drawn) [Example 24, (1-(4-((3-chlorobenzyl)amino)-6-(3,5-dimethylisoxazol-4-yl)quinazolin-2-yl)piperidin-3-yl)methanol]
< 0.5 | Cc1noc(C)c1-c1ccc2nc(N3CCN(CCN(C)C)CC3)cc(NCc3cccc(Cl)c3)c2c1 [Example 26, N-(3-chlorobenzyl)-2-(4-(2-(dimethylamino)ethyl)piperazin-1-yl)-6-(3,5-dimethylisoxazol-4-yl)quinolin-4-amine]
0.5 to 5 | Cc1noc(C)c1-c1ccc2nc(NCc3cccc(Cl)c3)cc(N3CCN(CCN(C)C)CC3)c2c1 [Example 27, N-(3-chlorobenzyl)-4-(4-(2-(dimethylamino)ethyl)piperazin-1-yl)-6-(3,5-dimethylisoxazol-4-yl)quinolin-2-amine]
< 0.5 | Cc1noc(C)c1-c1ccc2nc(N3CCN(C(=O)c4ccncc4)CC3)nc(NCc3cccc(Cl)c3)c2c1 [Example 29, (4-(4-((3-chlorobenzyl)amino)-6-(3,5-dimethylisoxazol-4-yl)quinazolin-2-yl)piperazin-1-yl)(pyridin-4-yl)methanone]
0.5 to 5 | Cc1noc(C)c1-c1ccc2nc(N3CCC(CCO)CC3)nc(NCc3cccc(Cl)c3)c2c1 [Example 30, 2-(1-(4-((3-chlorobenzyl)amino)-6-(3,5-dimethylisoxazol-4-yl)quinazolin-2-yl)piperidin-4-yl)ethanol]
< 0.5 | Cc1noc(C)c1-c1ccc2nc(N3CCCN(CCN(C)C)CC3)nc(NCc3cccc(Cl)c3)c2c1 [Example 32, N-(3-chlorobenzyl)-2-(4-(2-(dimethylamino)ethyl)-1,4-diazepan-1-yl)-6-(3,5-dimethylisoxazol-4-yl)quinazolin-4-amine]
